Experimental data: ChEMBL document CHEMBL5154834, “Anti-neuroinflammatory effects of novel 5,6-dihydrobenzo[h]quinazolin-2-amine derivatives in lipopolysaccharide-stimulated BV2 microglial cells” (Eur J Med Chem, 2022)

Key:
BV-2 [1] = assay: Anti-neuroinflammatory activity in mouse BV-2 cells assessed as inhibition of LPS-stimulated IL-6 production at 2.5 ug/ml measured after 24 hrs by ELISA; format: functional; design: scale not given: the % may be the effect or the level left; conditions: dose 2.5 µg/ml
BV-2 [2] = assay: Anti-neuroinflammatory activity in mouse BV-2 cells assessed as inhibition of LPS-stimulated TNF-alpha production at 2.5 ug/ml measured after 24 hrs by ELISA; format: functional; design: scale not given: the % may be the effect or the level left; conditions: dose 2.5 µg/ml
[3] = Cytotoxicity against mouse BV-2 cells assessed as survival rate at 2.5 ug/ml incubated for 24 hrs by MTT assay; format: toxicity, cell-based; conditions: at 2.5 µg/mL, read-out: Activity
BV-2 [4] = assay: Neuroprotective activity against LPS-induced mouse BV-2 cell death assessed as reversal of apoptosis at 2.5 uM and measured after 24 hrs by Annexin V-FITC/PI staining based flow cytometry method (reference value: 91.6%); format: functional
BV-2 [5] = assay: Anti-neuroinflammatory activity in mouse BV-2 cells assessed as inhibition of LPS-induced NLRP3 expression level at 1.25 to 5 ug/ml and measured after 24 hrs by western blot analysis; format: functional, cell-based; conditions: dose 1.25-5 µg/ml, DDE = dose-dependent effect
BV-2 [6] = assay: Neuroprotective activity against LPS-induced mouse BV-2 cell death assessed as late apoptotic cells at 2.5 uM and measured after 24 hrs by Annexin V-FITC/PI staining based flow cytometry method (reference value: 0%); format: functional
BV-2 [7] = assay: Neuroprotective activity against LPS-induced mouse BV-2 cell death assessed as late apoptotic cells at 5 uM and measured after 24 hrs by Annexin V-FITC/PI staining based flow cytometry method (reference value: 0%); format: functional
BV-2 [8] = assay: Anti-neuroinflammatory activity in mouse BV-2 cells assessed as inhibition of LPS-induced ASC expression level at 1.25 to 5 ug/ml and measured after 24 hrs by western blot analysis; format: functional, cell-based; conditions: dose 1.25-5 µg/ml, DDE = dose-dependent effect
BV-2 [9] = assay: Neuroprotective activity against LPS-induced mouse BV-2 cell death assessed as reversal of apoptosis at 5 uM and measured after 24 hrs by Annexin V-FITC/PI staining based flow cytometry method (reference value: 91.6%); format: functional
BV-2 [10] = assay: Anti-neuroinflammatory activity in mouse BV-2 cells assessed as inhibition of LPS-induced caspase-1 expression level at 1.25 to 5 ug/ml and measured after 24 hrs by western blot analysis; format: functional, cell-based; conditions: dose 1.25-5 µg/ml, DDE = dose-dependent effect
BV-2 [11] = assay: Anti-neuroinflammatory activity in mouse BV-2 cells assessed as reduction of LPS-stimulated IkappaBalpha phosphorylation level at 1.25 to 5 ug/ml and measured after 24 hrs by westernblot analysis; format: functional, cell-based; conditions: dose 1.25-5 µg/ml, DDE = dose-dependent effect

SMILES | Activity (BV-2 [1]) [%] | Activity (BV-2 [2]) [%] | viability at 24 h, 2.5 ug/ml [3] [%] | further results
COc1ccc(/C=C2\CCc3ccc(F)cc3C2=O)cc1C(F)(F)F | 42.3 | 38.6 | 94.7 | –
COc1cc(-c2nc(N)nc3c2CCc2ccc(Br)cc2-3)cc(OC)c1OC | 43.7 | 39.9 | 93.1 | –
COc1cncc(/C=C2\CCc3ccc(Br)cc3C2=O)c1 | 47 | 35.9 | 94.9 | –
COc1cncc(-c2nc(N)nc3c2CCc2ccc(Br)cc2-3)c1 | 43.3 | 49.4 | 93.2 | –
COc1cccc(-c2nc(N)nc3c2CCc2ccc(F)cc2-3)c1 | 66.6 | 53.8 | 95 | –
COc1cncc(-c2nc(N)nc3c2CCc2ccc(OC)cc2-3)c1 | 53.8 | 47.3 | 94.7 | –
COc1ccc(/C=C2\CCc3ccc(F)cc3C2=O)cn1 | 47 | 34.3 | 92.7 | –
COc1ccc(-c2nc(N)nc3c2CCc2ccc(Br)cc2-3)cn1 | 40.6 | 43.8 | 95.4 | –
COc1cc(/C=C2\CCc3ccc(Br)cc3C2=O)cc(OC)c1OC | 35.9 | 33.1 | 93.5 | –
COc1cccc(/C=C2\CCc3ccc(F)cc3C2=O)c1 | 35.2 | 34 | 90.3 | –
COc1cncc(/C=C2\CCc3ccc(F)cc3C2=O)c1 | 46.4 | 33.3 | 94.4 | –
COc1cccc(/C=C2\CCc3ccc(Br)cc3C2=O)n1 | 44.9 | 31.9 | 94.7 | –
COc1cccc(-c2nc(N)nc3c2CCc2ccc(Br)cc2-3)n1 | 55.8 | 44.8 | 88.9 | –
COc1ccc2c(c1)C(=O)/C(=C/c1cccc(OC)n1)CC2 | 54 | 40.6 | 90.4 | –
COc1ccc(-c2nc(N)nc3c2CCc2ccc(F)cc2-3)cc1C(F)(F)F | 43 | 42.4 | 91 | –
COc1cc(/C=C2\CCc3ccc(F)cc3C2=O)cc(OC)c1 | 46.1 | 40.8 | 87.8 | –

SMILES | Activity (BV-2 [1]) [%] | Activity (BV-2 [2]) [%] | viability at 24 h, 2.5 ug/ml [3] [%] | further results
COc1ccc2c(c1)-c1nc(N)nc(-c3cccc(OC)n3)c1CC2 | 44.1 | 44.9 | 94.8 | –
COc1ccc2c(c1)C(=O)/C(=C/c1ccc(OC)cc1C(F)(F)F)CC2 | 44.9 | 40 | 88.3 | –
S=C(S)N1CCCC1 [PYRROLIDINE DITHIOCARBAMATE] | 64 | 55.9 | – | –
COc1ccc2c(c1)C(=O)/C(=C/c1ccc(OC)c(C(F)(F)F)c1)CC2 | 44.4 | 32.8 | 94.4 | –
COc1ccc2c(c1)C(=O)/C(=C/c1ccc(OC)nc1)CC2 | 45 | 23.8 | 93.1 | –
COc1ccc(-c2nc(N)nc3c2CCc2ccc(F)cc2-3)cn1 | 43.9 | 43.3 | 89.6 | –
COc1ccc2c(c1)-c1nc(N)nc(-c3ccc(OC)c(C(F)(F)F)c3)c1CC2 | 44.2 | 46.7 | 90.3 | –
COc1cccc(-c2nc(N)nc3c2CCc2ccc(F)cc2-3)n1 | 66.9 | 50.3 | 95.4 | –
COc1ccc(/C=C2\CCc3ccc(Br)cc3C2=O)cn1 | 45.5 | 32.5 | 89.5 | –
COc1ccc2c(c1)-c1nc(N)nc(-c3ccc(OC)cc3C(F)(F)F)c1CC2 | 54.3 | 38.2 | 89.9 | –
COc1cncc(-c2nc(N)nc3c2CCc2ccc(F)cc2-3)c1 | 80.2 | 60.8 | 97.4 | Activity (BV-2 [4]): 54.8%; Activity (BV-2 [5]): Dde; Activity (BV-2 [6]): 30.7%; Activity (BV-2 [7]): 13%; Activity (BV-2 [8]): Dde; Activity (BV-2 [9]): 70.7%; Activity (BV-2 [10]): Dde; Activity (BV-2 [11]): Dde
COc1ccc2c(c1)-c1nc(N)nc(-c3ccc(OC)nc3)c1CC2 | 43.7 | 42.7 | 87.5 | –
COc1cc(OC)cc(-c2nc(N)nc3c2CCc2ccc(F)cc2-3)c1 | 51.7 | 45.3 | 95.4 | –
COc1cncc(/C=C2\CCc3ccc(OC)cc3C2=O)c1 | 43.7 | 29.7 | 92.3 | –
COc1cccc(/C=C2\CCc3ccc(F)cc3C2=O)n1 | 61.1 | 41.7 | 85.8 | –
